{"source": "patent US10894059B2", "about": "“NADH compound composition, and preparation and use thereof” (BONTAC BIO-ENGINEERING (SHENZHEN) CO., LTD, priority 2017, dated 2021)", "key": {"[1]": {"tested_on": "mice fed with high fat feed", "test": "Comparative pharmacological evaluation in obese mice (high fat feed model)", "assay_type": "in vivo", "settings": "gavage once a day, 50 mg according to L-carnitine, 4 weeks", "procedure": "Fifty male mice are selected at 6 weeks of age. The basal feed is fed for two weeks before the start of the experiment, and the initial body weight is 26±2 g. All experimental groups are randomly divided into 5 groups of 10 each, and the groups were as follows. (1) obesity experiment group: 1 group; (2) obesity experiment group: 2 groups; (3) obese control group; (4) obese blank group; (5) normal blank group Cage feeding, 5 in 1 cage; ambient temperature of 22±2° C., humidity of 45˜65%; the light illumination alternates for 12 h, and the mice are free to eat and drink. Among them, the normal blank group is fed with normal feed, and the other 4 groups are fed with high fat feed; changes in body weight are recorded twice a week; the feeding process lasts 6 weeks to establish the model. Group (1) is given a solution of the NADH compound composition prepared in Embodiment 1 by gavage once a day; Group (2) is given a mixture of NADH and L-carnitine in Embodiment 1 (without other ingredients) by gavage once a day; Group (3) is given L-carnitine by gavage once a day; the amount of administration for Group (1), Group (2) and Group (3) is 50 mg according to L-carnitine; during the period, 5 groups of mice are fed with normal diet in free diet, and continued to be observed for 4 weeks. […]"}, "[2]": {"settings": "people taking L-carnitine for weight loss, as much as 1˜3 g; cited from earlier work"}}, "data": [{"smiles": "C[N+](C)(C)C[C@H](O)CC(=O)[O-]", "note": "[L-carnitine, β-hydroxy γ-trimethylammonium butyrate]", "values": [{"measurement": "Body fat ratio (%)", "setting": "[1]; (fat around kidney + fat around testicles)/body weight after test*100", "result": "2.35 ± 2.69", "unit": "%"}, {"measurement": "Body weight growth rate (%)", "setting": "[1]; weight growth/experimental initial weight*100", "result": "44.98 ± 3.44", "unit": "%"}, {"measurement": "absolute bioavailability", "setting": "[2]", "result": "15.9±4.9", "unit": "%"}]}]}
